From patent US20250170130A1, “MODULATORS OF MYC FAMILY PROTO-ONCOGENE PROTEIN” (Nalo Therapeutics, priority 2022, published 2025) come the findings set out here.

Assay [1] addresses T1, MycN (Homo sapiens, UniProt P04198).
T1 construct: endogenous in cells; host or cells: SK-N-BE(2)
T1 sequence (P04198 1-464): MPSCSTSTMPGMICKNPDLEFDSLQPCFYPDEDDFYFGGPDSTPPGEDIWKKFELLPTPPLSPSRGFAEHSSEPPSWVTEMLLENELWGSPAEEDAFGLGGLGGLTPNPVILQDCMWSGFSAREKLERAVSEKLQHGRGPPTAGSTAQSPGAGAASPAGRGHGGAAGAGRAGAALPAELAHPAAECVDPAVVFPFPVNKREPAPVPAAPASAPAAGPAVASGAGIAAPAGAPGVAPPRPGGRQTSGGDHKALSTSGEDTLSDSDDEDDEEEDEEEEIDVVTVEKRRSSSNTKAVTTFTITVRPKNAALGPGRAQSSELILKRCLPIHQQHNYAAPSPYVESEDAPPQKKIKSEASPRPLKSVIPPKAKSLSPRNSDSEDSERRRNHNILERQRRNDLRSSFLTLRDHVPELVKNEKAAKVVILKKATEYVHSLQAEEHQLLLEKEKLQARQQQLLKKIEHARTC
Put plainly: Degradation of MycN protein in SK-N-BE(2) cells, JESS/Western blot of lysates. In kind it is cell-based. The settings on record: SKNBE2, 24 h, SKNBE2 cells, 24 h; for Dmax at 0.5 µM: read-out: % Degradation of MycN (SKNBE2) 24 h, 0.5 μM; for Dmax at 1 µM: read-out: % Degradation of MycN (SKNBE2) 24 h, 1 μM; for Dmax at 3 µM: read-out: % Degradation of MycN (SKNBE2) 24 h, 3 μM; for Dmax at 6 µM: read-out: % Degradation of MycN (SKNBE2) 24 h, 6 μM. In outline:
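SK-N-BE(2) adherent cells (5E5 per well of a 6 well dish) were grown 24 hrs, then exposed to compounds diluted 1 in 20 in media, with DMSO controls, for 24 hrs. Cells were scraped, pelleted, PBS washed and lysed in RIPA buffer cocktail; after BCA protein quantitation, n-myc was detected by chemiluminescence on JESS/Western blot with tubulin and GAPDH loading controls read in the near infra red channel.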

For assay [2], the target named is T2, MycC (Homo sapiens, UniProt P01106).
T2 construct: endogenous in cells; host or cells: L363
T2 sequence (P01106 whole entry): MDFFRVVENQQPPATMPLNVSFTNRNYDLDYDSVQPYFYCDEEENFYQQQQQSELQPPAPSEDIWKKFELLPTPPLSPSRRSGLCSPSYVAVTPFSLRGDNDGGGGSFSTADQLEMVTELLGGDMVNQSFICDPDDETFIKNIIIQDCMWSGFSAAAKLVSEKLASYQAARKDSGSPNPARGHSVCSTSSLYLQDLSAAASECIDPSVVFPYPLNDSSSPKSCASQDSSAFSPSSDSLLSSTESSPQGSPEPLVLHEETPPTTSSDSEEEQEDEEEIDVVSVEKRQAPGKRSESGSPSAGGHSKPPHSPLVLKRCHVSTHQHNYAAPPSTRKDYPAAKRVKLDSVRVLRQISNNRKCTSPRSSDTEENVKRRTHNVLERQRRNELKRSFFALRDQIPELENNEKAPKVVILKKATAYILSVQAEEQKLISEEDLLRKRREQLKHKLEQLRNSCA
Put plainly: Degradation of MycC protein in L363 cells, JESS/Western blot of lysates. To be noted: L-363, 24 h, L-363 cells, 24 h; for Dmax at 0.5 µM: read-out: % Degradation of MycC (L-363) 24 h, 0.5 μM; for Dmax at 1 µM: read-out: % Degradation of MycC (L-363) 24 h, 1 μM; for Dmax at 3 µM: read-out: % Degradation of MycC (L-363) 24 h, 3 μM; for Dmax at 6 µM: read-out: % Degradation of MycC (L-363) 24 h, 6 μM. In kind it is cell-based. The method, boiled down: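 L363 suspension cells were seeded at 1E6 cells per well and exposed to compound (stock 10 mM in DMSO) for 24 hrs. Cells were collected, spun down, rinsed with PBS, lysed in RIPA buffer cocktail on ice, clarified and kept at −80 degrees. Lysate protein was quantified by BCA, and c-myc was measured on JESS by chemiluminescence with tubulin and GAPDH loading controls in the NIR channel.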
(A western blot detects proteins with antibodies after separation by electrophoresis.)

For the compound `c1cc(Nc2cc(C3CC3)[nH]n2)nc(N2C[C@H]3CNC[C@H]3C2)n1` [Compound 18, N-(5-Cyclopropyl-1H-pyrazol-3-yl)-2-[rac-(3aR,6aS)-2,3,3a,4,6,6a-hexahydro-1H-pyrolo[3,4-c]pyrrol-5-yl]pyrimidin-4-amine], in assay [1], the Dmax at 0.5 µM lay within 20 to 49%, the Dmax at 1 µM was in the range of 50 to 79%, the Dmax at 3 µM lay in the range of 80 to 100% and the Dmax at 6 µM lay within 80 to 100%. Also, in assay [2], the Dmax at 0.5 µM was under 20%, the Dmax at 1 µM is under 20%, the Dmax at 3 µM was under 20% and the Dmax at 6 µM was in the range of 20 to 49%.

In the case of `CN1CC2(CCCN(c3nccc(Nc4cc(C5CC5)[nH]n4)n3)C2)C1` [Compound 43], in assay [1], the Dmax at 0.5 µM lay in the range of 20 to 49%, the Dmax at 1 µM lay within 20 to 49%, the Dmax at 3 µM fell in the range of 20 to 49% and the Dmax at 6 µM was in the range of 50 to 79%. Further, in assay [2], the Dmax at 0.5 µM fell in the range of 20 to 49%, the Dmax at 1 µM is under 20%, the Dmax at 3 µM lay within 20 to 49% and the Dmax at 6 µM is under 20%.

As to `CN1C[C@@H]2CN(c3nccc(Nc4cc(C5CC5)[nH]n4)n3)C[C@@H]2C1` [Compound 15, 2-[rac-(3aR,6aS)-2-methyl-1,3,3a,4,6,6a-hexahydropyrrolo[3,4-c]pyrrol-5-yl]-N-(5-cyclopropyl-1H-pyrazol-3-yl)pyrimidin-4-amine], in assay [1], the Dmax at 0.5 µM lay in the range of 20 to 49%, the Dmax at 1 µM lay in the range of 20 to 49%, the Dmax at 3 µM was in the range of 50 to 79% and the Dmax at 6 µM fell in the range of 80 to 100%. Further, in assay [2], the Dmax at 0.5 µM is under 20%, the Dmax at 1 µM was 20 to 49%, the Dmax at 3 µM lay in the range of 20 to 49% and the Dmax at 6 µM was in the range of 20 to 49%.

`NC[C@H]1CN(c2nccc(Nc3cc(C4CC4)[nH]n3)n2)C[C@H]1F` [Compound 122-2, 2-[(3S,4S)-3-(Aminomethyl)-4-fluoro-pyrrolidin-1-yl]-N-(5-cyclopropyl-1H-pyrazol-3-yl)pyrimidin-4-amine]: in assay [1], the Dmax at 1 µM was under 20%, the Dmax at 3 µM was in the range of 50 to 79% and the Dmax at 6 µM was in the range of 80 to 100%. In assay [2], the Dmax at 0.5 µM is 20 to 49%, the Dmax at 1 µM lay in the range of 50 to 79%, the Dmax at 3 µM was in the range of 80 to 100% and the Dmax at 6 µM is 80 to 100%.

As for `CN1CC2(CCCN(c3nccc(Nc4cc(C5CCCC5)[nH]n4)n3)C2)C1` [Compound 107, N-(5-cyclopentyl-1H-pyrazol-3-yl)-2-(2-methyl-2,6-diazaspiro[3.5]nonan-6-yl)pyrimidin-4-amine], in assay [1], the Dmax at 0.5 µM is under 20%, the Dmax at 1 µM was in the range of 20 to 49%, the Dmax at 3 µM lay in the range of 20 to 49% and the Dmax at 6 µM lay in the range of 20 to 49%. In addition, in assay [2], the Dmax at 3 µM is under 20% and the Dmax at 6 µM was under 20%.

As to `NC[C@H]1CCN(c2nccc(Nc3cc(C4CCCC4)[nH]n3)n2)C1` [Compound 23, 2-[(3R)-3-(aminomethyl)pyrrolidin-1-yl]-N-(5-cyclopentyl-1H-pyrazol-3-yl)pyrimidin-4-amine], in assay [1], the Dmax at 0.5 µM lay within 20 to 49%, the Dmax at 1 µM fell in the range of 50 to 79%, the Dmax at 3 µM lay within 80 to 100% and the Dmax at 6 µM is 80 to 100%. Moreover, in assay [2], the Dmax at 3 µM lay within 80 to 100% and the Dmax at 6 µM lay in the range of 80 to 100%.

Turning to `O=C1c2ccccc2C(=O)N1CC12CC(CN(c3nccc(Nc4cc(C5CC5)[nH]n4)n3)C1)C2` [Compound 126, 2-[[3-[4-[(5-Cyclopropyl-1H-pyrazol-3-yl)amino]pyrimidin-2-yl]-3-azabicyclo[3.1.1]heptan-1-yl]methyl]isoindoline-1,3-dione], in assay [1], the Dmax at 0.5 µM lay within 80 to 100%, the Dmax at 1 µM fell in the range of 80 to 100%, the Dmax at 3 µM fell in the range of 80 to 100% and the Dmax at 6 µM was 80 to 100%. Also, in assay [2], the Dmax at 0.5 µM lay in the range of 80 to 100%, the Dmax at 1 µM fell in the range of 80 to 100%, the Dmax at 3 µM fell in the range of 80 to 100% and the Dmax at 6 µM was 80 to 100%.

Turning to `CNCC12CC(C1)N(c1nccc(Nc3cc(C4CCCC4)ncn3)n1)C2` [Compound 112, N-(6-Cyclopentylpyrimidin-4-yl)-2-[4-(methylaminomethyl)-2-azabicyclo[2.1.1]hexan-2-yl]pyrimidin-4-amine], in assay [1], the Dmax at 3 µM is 50 to 79% and the Dmax at 6 µM was 80 to 100%. Moreover, in assay [2], the Dmax at 6 µM fell in the range of 50 to 79%.

Take `CNC[C@@H]1CN(c2nccc(Nc3cc(C4CCCC4)[nH]n3)n2)CCO1` [Compound 118, N-(5-Cyclopentyl-1H-pyrazol-3-yl)-2-[(2R)-2-(methylaminomethyl)morpholin-4-yl]pyrimidin-4-amine]: in assay [1], the Dmax at 0.5 µM was under 20%, the Dmax at 1 µM lay within 20 to 49%, the Dmax at 3 µM is under 20% and the Dmax at 6 µM lay within 80 to 100%. For the same compound, in assay [2], the Dmax at 1 µM was under 20% and the Dmax at 3 µM was under 20%.

As to `NC[C@H]1CN(c2nccc(Nc3cc(C4CCCC4)[nH]n3)n2)C[C@H]1F` [Compound 123-2, 2-[(3S,4S)-3-(Aminomethyl)-4-fluoro-pyrrolidin-1-yl]-N-(5-cyclopentyl-1H-pyrazol-3-yl)pyrimidin-4-amine], in assay [1], the Dmax at 0.5 µM was 20 to 49%, the Dmax at 1 µM fell in the range of 20 to 49%, the Dmax at 3 µM was in the range of 50 to 79% and the Dmax at 6 µM lay within 80 to 100%. Also, in assay [2], the Dmax at 0.5 µM fell in the range of 20 to 49%, the Dmax at 1 µM was in the range of 50 to 79%, the Dmax at 3 µM fell in the range of 80 to 100% and the Dmax at 6 µM is 80 to 100%.

As to `CNC1CC2(C1)CN(c1nccc(Nc3cc(C4CC4)[nH]n3)n1)C2` [Compound 1, 2-(4-((5-cyclopropyl-1H-pyrazol-3-yl)amino)pyrimidin-2-yl)-N-methyl-2-azaspiro[3.3]heptan-6-amine], in assay [1], the Dmax at 3 µM is under 20% and the Dmax at 6 µM is 50 to 79%. The Dmax at 6 µM in assay [2] is 20 to 49%.

Consider `CN1CC2(CCN(c3nccc(Nc4cc(C5CCCC5)[nH]n4)n3)CC2)C1` [Compound 86], for which, in assay [1], the Dmax at 0.5 µM lay within 20 to 49%, the Dmax at 1 µM was in the range of 20 to 49%, the Dmax at 3 µM was 80 to 100% and the Dmax at 6 µM lay in the range of 80 to 100%. In assay [2], the Dmax at 3 µM lay within 80 to 100% and the Dmax at 6 µM lay in the range of 80 to 100%.

Consider `CN(C)CC12CC(C1)N(c1nccc(Nc3cc(C4CC4)[nH]n3)n1)C2` [Compound 22, N-(5-Cyclopropyl-1H-pyrazol-3-yl)-2-[4-[(dimethylamino)methyl]-2-azabicyclo[2.1.1]hexan-2-yl]pyrimidin-4-amine], for which, in assay [1], the Dmax at 0.5 µM was under 20%, the Dmax at 1 µM is under 20%, the Dmax at 3 µM lay within 20 to 49% and the Dmax at 6 µM lay within 50 to 79%. Besides, in assay [2], the Dmax at 3 µM was under 20% and the Dmax at 6 µM lay in the range of 80 to 100%.

As for `CNCC12CC(C1)N(c1nccc(Nc3cc(C4CC4)[nH]n3)n1)C2` [Compound 14, N-(5-cyclopropyl-1H-pyrazol-3-yl)-2-(4-((methylamino)methyl)-2-azabicyclo[2.1.1]hexan-2-yl)pyrimidin-4-amine], in assay [1], the Dmax at 0.5 µM was under 20%, the Dmax at 1 µM fell in the range of 20 to 49%, the Dmax at 3 µM lay within 20 to 49% and the Dmax at 6 µM is 80 to 100%. Further, in assay [2], the Dmax at 0.5 µM was in the range of 20 to 49%, the Dmax at 1 µM is 80 to 100%, the Dmax at 3 µM was 80 to 100% and the Dmax at 6 µM was in the range of 80 to 100%.

For `c1cc(Nc2cc(C3CC3)[nH]n2)nc(N2CC3(CCCNC3)C2)n1` [Compound 105, N-(5-Cyclopropyl-1H-pyrazol-3-yl)-2-(2,8-diazaspiro[3.5]nonan-2-yl)pyrimidin-4-amine], in assay [1], the Dmax at 0.5 µM was under 20%, the Dmax at 1 µM was under 20%, the Dmax at 3 µM was under 20% and the Dmax at 6 µM is 80 to 100%. Moreover, in assay [2], the Dmax at 3 µM is under 20% and the Dmax at 6 µM lay within 80 to 100%.
